The NIST ThermoML archive (doi:10.1021/je5009125)

Test: xn = mol fraction of the nth substance listed
Settings: Liquid; for viscosity: Vibrating wire viscometry; for mass density: Vibrating tube method

O=C=O [carbon dioxide] + O
Settings	mass density [kg/m3]	viscosity [mPa·s]
373.13 K, 70300 kPa, x1 = 0.0086	–	0.302
373.13 K, 96400 kPa, x1 = 0.0086	–	0.308
373.38 K, 70590 kPa, x1 = 0.0271	998.2	–
373.38 K, 100800 kPa, x1 = 0.0271	1010.3	–
373.42 K, 15090 kPa, x1 = 0.0086	967.8	–
373.42 K, 30180 kPa, x1 = 0.0086	974.6	–
373.42 K, 50280 kPa, x1 = 0.0086	983.2	–
373.42 K, 70390 kPa, x1 = 0.0086	991.5	–
373.42 K, 100710 kPa, x1 = 0.0086	1003.2	–
373.46 K, 30190 kPa, x1 = 0.0168	977.8	–
373.46 K, 50320 kPa, x1 = 0.0168	986.5	–
373.46 K, 70450 kPa, x1 = 0.0168	994.9	–
373.46 K, 100740 kPa, x1 = 0.0168	1006.7	–
374.09 K, 70300 kPa, x1 = 0.0271	–	0.309
374.09 K, 96400 kPa, x1 = 0.0271	–	0.318
397.88 K, 30100 kPa, x1 = 0.0168	–	0.233
397.88 K, 50200 kPa, x1 = 0.0168	–	0.238
397.88 K, 70200 kPa, x1 = 0.0168	–	0.244
397.88 K, 96300 kPa, x1 = 0.0168	–	0.25
397.98 K, 30100 kPa, x1 = 0.0086	–	0.231
397.98 K, 50200 kPa, x1 = 0.0086	–	0.236
397.98 K, 70300 kPa, x1 = 0.0086	–	0.242
397.98 K, 96400 kPa, x1 = 0.0086	–	0.248
398.48 K, 50470 kPa, x1 = 0.0271	970	–
398.48 K, 70600 kPa, x1 = 0.0271	979.3	–
398.48 K, 100800 kPa, x1 = 0.0271	992.1	–
398.55 K, 15060 kPa, x1 = 0.0086	948.3	–
398.55 K, 30170 kPa, x1 = 0.0086	955.6	–
398.55 K, 30190 kPa, x1 = 0.0168	958.2	–
398.55 K, 50290 kPa, x1 = 0.0086	964.9	–
398.55 K, 50330 kPa, x1 = 0.0168	967.8	–
398.55 K, 70390 kPa, x1 = 0.0086	973.7	–
398.55 K, 70460 kPa, x1 = 0.0168	976.7	–
398.55 K, 100710 kPa, x1 = 0.0086	986	–
398.55 K, 100730 kPa, x1 = 0.0168	989.4	–
398.98 K, 50200 kPa, x1 = 0.0271	–	0.241
398.98 K, 70200 kPa, x1 = 0.0271	–	0.245
398.98 K, 96300 kPa, x1 = 0.0271	–	0.254
422.91 K, 30000 kPa, x1 = 0.0168	–	0.192
422.91 K, 50100 kPa, x1 = 0.0168	–	0.196
422.91 K, 70200 kPa, x1 = 0.0168	–	0.202
422.91 K, 96200 kPa, x1 = 0.0168	–	0.208
423.82 K, 50200 kPa, x1 = 0.0271	–	0.198
423.82 K, 70300 kPa, x1 = 0.0271	–	0.204
423.82 K, 96500 kPa, x1 = 0.0271	–	0.21
423.84 K, 50460 kPa, x1 = 0.0271	948	–
423.84 K, 70580 kPa, x1 = 0.0271	958.1	–
423.84 K, 100810 kPa, x1 = 0.0271	972.1	–
423.92 K, 15070 kPa, x1 = 0.0086	925.9	–
423.92 K, 30180 kPa, x1 = 0.0086	934	–
423.92 K, 50300 kPa, x1 = 0.0086	944.2	–
423.92 K, 70420 kPa, x1 = 0.0086	953.8	–
423.92 K, 100710 kPa, x1 = 0.0086	967.1	–
423.93 K, 30200 kPa, x1 = 0.0168	935.7	–
423.93 K, 50340 kPa, x1 = 0.0168	946.2	–
423.93 K, 70460 kPa, x1 = 0.0168	956	–
423.93 K, 100730 kPa, x1 = 0.0168	969.7	–
424.03 K, 30100 kPa, x1 = 0.0086	–	0.19
424.03 K, 50200 kPa, x1 = 0.0086	–	0.194
424.03 K, 70200 kPa, x1 = 0.0086	–	0.199
424.03 K, 96400 kPa, x1 = 0.0086	–	0.205
448.29 K, 30000 kPa, x1 = 0.0168	–	0.163
448.29 K, 50100 kPa, x1 = 0.0168	–	0.168
448.29 K, 70100 kPa, x1 = 0.0168	–	0.173
448.29 K, 96200 kPa, x1 = 0.0168	–	0.179
448.71 K, 50200 kPa, x1 = 0.0271	–	0.169
448.71 K, 70200 kPa, x1 = 0.0271	–	0.173
448.71 K, 96400 kPa, x1 = 0.0271	–	0.179
448.93 K, 30000 kPa, x1 = 0.0086	–	0.162
448.93 K, 50100 kPa, x1 = 0.0086	–	0.167
448.93 K, 70200 kPa, x1 = 0.0086	–	0.172
448.93 K, 96300 kPa, x1 = 0.0086	–	0.178
449.17 K, 50450 kPa, x1 = 0.0271	923.6	–
449.17 K, 70570 kPa, x1 = 0.0271	934.9	–
449.17 K, 100800 kPa, x1 = 0.0271	950.3	–
449.2 K, 15080 kPa, x1 = 0.0086	900.7	–
449.2 K, 30190 kPa, x1 = 0.0086	909.9	–
449.2 K, 30210 kPa, x1 = 0.0168	910.8	–
449.2 K, 50310 kPa, x1 = 0.0086	921.3	–
449.2 K, 50360 kPa, x1 = 0.0168	922.6	–
449.2 K, 70420 kPa, x1 = 0.0086	931.8	–
449.2 K, 70470 kPa, x1 = 0.0168	933.5	–
449.2 K, 100710 kPa, x1 = 0.0086	946.4	–
449.2 K, 100740 kPa, x1 = 0.0168	948.4	–
